Where two headings read alike, the source gives them in different places.
What was measured:
[1] = biological target: T1, α-glucosidase (Saccharomyces cerevisiae, UniProt P38158); parameters: method as in ref 22 (Taha et al.); conditions: ref 22 (Taha et al.), cited from earlier work
T1 construct: purchased Merck

[2] = biological target: T1, α-glucosidase; parameters: method as in ref 23 (Izgi et al.); conditions: ref 23 (Izgi et al.); read-out: α-glucosidase inhibition IC50; cited from earlier work
[3] = biological target: T2, porcine pancreatic amylase (Sus scrofa, UniProt P00690); assay: α-Amylase inhibitory activity (starch/DNS); format: biochemical; conditions: porcine pancreatic amylase, starch, pH 6.9, 25 °C; read-out: IC50 α-Amylase
T2 construct: purchased Merck
T2 sequence (P00690 16-511): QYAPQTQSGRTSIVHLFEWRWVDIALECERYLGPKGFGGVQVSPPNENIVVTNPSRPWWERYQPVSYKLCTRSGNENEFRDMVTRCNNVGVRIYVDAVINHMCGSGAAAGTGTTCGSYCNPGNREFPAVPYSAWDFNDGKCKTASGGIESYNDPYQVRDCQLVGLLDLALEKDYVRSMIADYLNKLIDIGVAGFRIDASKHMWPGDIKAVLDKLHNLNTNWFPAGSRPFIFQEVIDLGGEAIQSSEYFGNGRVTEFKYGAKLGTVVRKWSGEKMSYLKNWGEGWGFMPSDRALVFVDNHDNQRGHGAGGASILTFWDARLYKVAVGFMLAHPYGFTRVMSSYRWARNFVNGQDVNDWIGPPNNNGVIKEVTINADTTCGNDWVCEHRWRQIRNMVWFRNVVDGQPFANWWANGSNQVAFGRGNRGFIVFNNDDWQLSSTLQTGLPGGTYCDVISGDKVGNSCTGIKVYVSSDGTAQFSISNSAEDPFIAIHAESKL
Procedure: α-Amylase inhibitory activity was determined according to Ibitoye et al. with slight modifications. […] The reaction in the mixture was terminated with a 1 mL dinitrosalicylate reagent before boiling for 10 min. The cooled mixture was diluted with 5 mL distilled water, and the absorbance was read at 540 nm. The inhibitory activity was calculated using the formula below: % Inhibition=1−Absorbance of compound/Absorbance of control×100

[4] = DPPH radical scavenging activity; conditions: DPPH radical scavenging, 30 min, 25 °C
Procedure: The DPPH assay is used conventionally to quantify a compound’s ability to trap free radicals.
The compounds were evaluated for their ability to scavenge stable DPPH radicals, using a modification of the method by Turkoglu et al..

[5] = Nitric oxide (NO) scavenging activity; conditions: nitric oxide radical scavenging, 37 °C, 2 h
Procedure: The screening of the present compound series for NO radical scavenging activity (Table 2) identified excellent NO scavengers.
The antioxidant capacity of the compounds to scavenge nitric oxide radicals was determined using a modified version of the protocol by Kurian et al.. Briefly, 250 μL of sodium nitroprusside (10 mM) prepared in sodium phosphate buffer (pH 7.4) was added to 500 μL of the compound solution (62.5–500 μM) or distilled water (control). The resulting solution was incubated at 37 °C for 2 h. Then, 250 μL of Griess reagent was added to the reaction mixture before the absorbance was measured at 546 nm. The nitric oxide scavenging activity of the compounds was calculated with the formula: Nitric oxide scavenging (%)=1−Absorbance of compound/Absorbance of control×100

[6] = Ferric reducing antioxidant power (FRAP); conditions: ferric reducing antioxidant power
Procedure: FRAP is a ferric (Fe^3+) to ferrous (Fe^2+) ions reduction assay that measures a compound’s electron-donating capacity, i.e., the antioxidant’s reducing power.
The mixture was incubated at 50 °C for 20 min, followed by acidification with 100 μL trichloroacetic acid (10%). After centrifugation at 3500 rpm for 10 min, 200 μL of the supernatant was transferred into another test tube containing 200 μL of distilled water and 0.8 mL of FeCl3 (0.1%). Finally, the absorbance was read at 700 nm, and the total reductive antioxidant power was calculated thus: Ferric reducing antioxidant power (%)=Absorbance of compound/Absorbance of 500µM gallic acid×100

[7] = biological target: T1, α-glucosidase; assay: Mode of α-glucosidase inhibition (enzyme kinetics, Lineweaver–Burk); format: biochemical; conditions: Lineweaver–Burk plots; inhibitor 0, 75, 150, 300 µM; pNPG
Text: Understanding a drug’s mode of inhibiting its target is crucial to improve the drug’s activity profile and target specificity. Although orthosteric inhibition, in which the ligand binds at the target’s active site, dominates among currently available drugs, allosteric inhibitors (i.e., drugs binding at regions […] the active site) are desirable due to their reduced vulnerability to active site mutation or to displacement through native substrate overload at the active site. Accordingly, the mode of α-glucosidase inhibition was investigated for promising compounds 4b, 4i, 4j, 4k, 4l, 12k, and 12m, using a time-dependent para-nitrophenyl-[…] (pNPG) assay; the results are presented as Lineweaver–Burk plots (Figure 4). […] Conceivably, this can result in decreased systemic glucose concentration thus alleviating postprandial hyperglycemia and its associated complications.
The mode of inhibition of α-glucosidase of the 4b, 4i, 4j, 4k, 4l, 12k, and 12m compounds was determined using the method described by Kazeem et al. 2013, with modifications. Briefly, 50 µL of the 4b, 4i, 4j, 4k, 4l, 12k, and 12m compounds at (0 µM, 75 µM, 150 µM and 300 µM) concentrations were preincubated with 100 µL of α-glucosidase solution for 10 min at 25 °C in one set of tubes. In another set of tubes, α-glucosidase was preincubated with 50 µL of phosphate buffer (pH 6.9). 25 µL of pNPG at increasing concentrations (0.125–4.0 mg/mL) was added to both sets of solution to start the reaction. Immediately, the absorbance of the resulting solution was monitored for 2 min in a spectrophotometer at 405 nm. The amount of 4-nitrophenol released was determined from a 4-nitrophenol standard curve and then converted to reaction velocities.

[8] = biological target: T1, α-glucosidase; assay: biochemical; conditions: pNPG substrate, pH 6.8, 37 °C; read-out: IC50 α-Glucosidase
Procedure: The α-glucosidase inhibitory activity was evaluated using a previous method with slight modifications.

[9] = biological target: T1, α-glucosidase; parameters: method as in ref 28 (Asemanipoor et al.); conditions: ref 28 (Asemanipoor et al.); read-out: α-glucosidase inhibition IC50; cited from earlier work

T1 sequence (P38158 whole entry): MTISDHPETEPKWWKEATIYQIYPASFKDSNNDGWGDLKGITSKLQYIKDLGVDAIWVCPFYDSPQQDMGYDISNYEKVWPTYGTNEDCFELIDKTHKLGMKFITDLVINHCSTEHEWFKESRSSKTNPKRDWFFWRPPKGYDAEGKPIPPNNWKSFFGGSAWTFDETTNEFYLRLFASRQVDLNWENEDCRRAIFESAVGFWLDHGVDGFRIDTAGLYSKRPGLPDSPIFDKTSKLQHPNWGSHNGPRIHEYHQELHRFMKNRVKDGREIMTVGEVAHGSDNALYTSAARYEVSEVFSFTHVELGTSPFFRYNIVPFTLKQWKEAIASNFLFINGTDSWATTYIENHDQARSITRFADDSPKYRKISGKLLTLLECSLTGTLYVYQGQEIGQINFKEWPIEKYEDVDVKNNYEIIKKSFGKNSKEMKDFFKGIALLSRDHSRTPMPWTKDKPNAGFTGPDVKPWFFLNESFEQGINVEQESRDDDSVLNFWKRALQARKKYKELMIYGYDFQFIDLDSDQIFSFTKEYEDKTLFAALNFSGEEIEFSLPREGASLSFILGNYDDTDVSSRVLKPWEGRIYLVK

In the case of `O=C(N/N=C/c1ccc(O)c(O)c1)c1ccc(-c2nnc(-c3ccc4ncccc4c3)o2)cc1` [A], the “fold superior α-glucosidase inhibition compared with acarbose” value [1] is given as 15 fold and the IC50 ([1]; read-out: α-glucosidase inhibition IC50) is given as 2.6 µM.
In the case of `c1ccc(-c2nnc(-c3c[nH]c4ncccc34)o2)cc1` [B], the IC50 [2] is given as 400 µM.
`c1ccc(CSc2nnc(COc3cccc4cccnc34)o2)cc1` [4j, 2-(Benzylthio)-5-[(quinolin-8-yloxy)methyl]-1,3,4-oxadiazole] gave a melting point of 75.3 to 79.8 °C, an IC50 [3] of over 500 µM and an IC50 [4] of 54.9 µM. For the same molecule, the IC50 [5] was 399 µM, the IC50 [6] was over 500 µM and the “mode of α-glucosidase inhibition” value [7] was “non-competitive”. The IC50 [8] was 26.7 µM.
In the case of `CCc1ccc(NC(=O)Cn2cc(COc3ccc(-c4nc5ccccc5[nH]4)cc3)nn2)cc1` [C], the IC50 [9] is listed as 35 µM.
Work on `Clc1ccc(CSc2nnc(COc3cccc4cccnc34)o2)cc1` [4l, 2-[(4-Chlorobenzyl)thio]-5-[(quinolin-8-yloxy)methyl]-1,3,4-oxadiazole] yielded a melting point of 101.4 to 104.2 °C, an IC50 [3] of over 500 µM and an IC50 [4] of 77.7 µM. The IC50 [5] was over 500 µM, the IC50 [6] was over 500 µM and the “mode of α-glucosidase inhibition” value [7] was “non-competitive”. For the same molecule, the IC50 [8] was 25.2 µM.
`c1ccc(-n2cc(CSc3nnc(COc4cccc5cccnc45)o3)nn2)cc1` [12k, 2-{[(1-Phenyl-1H-1,2,3-triazol-4-yl)methyl]thio}-5-[(quinolin-8-yloxy)methyl]-1,3,4-oxadiazole] gave a melting point of 122 to 128 °C, an IC50 [3] of over 500 µM and an IC50 [4] of 85.7 µM. The IC50 [5] was over 500 µM, the IC50 [6] was over 500 µM and the “mode of α-glucosidase inhibition” value [7] was “non-competitive”. The IC50 [8] was 22.5 µM.

Source: article PMC9414972, “α-Glucosidase and α-Amylase Inhibitory Potentials of Quinoline–1,3,4-oxadiazole Conjugates Bearing 1,2,3-Triazole with Antioxidant Activity, Kinetic Studies, and Computational Validation” (Pharmaceuticals, 2022)
